According to ChEMBL document CHEMBL4715867, “Amycolasporins and Dibenzoyls from Lichen-Associated Amycolatopsis hippodromi and Their Antibacterial and Anti-inflammatory Activities” (J Nat Prod, 2020):
≈ marks a conversion by molar mass, not a printed value. Calls of active or inactive are those of the source. No cut-off for these calls is given here.

Assays:
Candida parapsilosis = assay: Antifungal activity against Candida parapsilosis ATCC 22019 at 100 ug/ml after 48 hrs by microbroth dilution method; format: functional, organism-based; details: dose 100.0 µg/ml
Staphylococcus aureus = assay: Antibacterial activity against Staphylococcus aureus ATCC 25923 after 24 hrs by microbroth dilution method; format: functional
Escherichia coli = assay: Antibacterial activity against Escherichia coli ATCC 25922 after 24 hrs by microbroth dilution method; format: functional
Cryptococcus neoformans = assay: Antifungal activity against Cryptococcus neoformans ATCC 208821 at 100 ug/ml after 72 hrs by microbroth dilution method; format: functional, organism-based; details: dose 100.0 µg/ml
Candida albicans = assay: Antifungal activity against Candida albicans MYA-2867 at 100 ug/ml after 48 hrs by microbroth dilution method; format: functional, organism-based; details: dose 100.0 µg/ml
Bacillus subtilis = assay: Antibacterial activity against Bacillus subtilis ATCC 6633 after 24 hrs by microbroth dilution method; format: functional
RAW264.7 [1] = assay: Inhibition of LPS-induced NO production in mouse RAW264.7 cells assessed as reduction in iNOS protein expression preincubated for 2 hrs followed by LPS-stimulation and measured after 24 hrs by Western blot analysis; format: functional, cell-based; details: dose 3.3-33 µM, time 26.0 hrs
RAW264.7 [2] = assay: Inhibition of LPS-induced NO production in mouse RAW264.7 cells preincubated for 2 hrs followed by LPS-stimulation and measured after 24 hrs by Griess reagent based assay; format: functional, cell-based; details: dose 3.3-33 µM, time 26.0 hrs

| SMILES | Activity (Candida parapsilosis) | MIC (Staphylococcus aureus) [µg/mL] | MIC (Escherichia coli) [µg/mL] | Activity (Cryptococcus neoformans) | Activity (Candida albicans) | MIC (Bacillus subtilis) [µg/mL] | inhibition (RAW264.7 [1]) | inhibition (RAW264.7 [2]) |
| --- | --- | --- | --- | --- | --- | --- | --- | --- |
| NC(=O)c1cc2c(cn1)CCC2=O | inactive | 25 (≈ 142 µM) | 25 (≈ 142 µM) | inactive | inactive | 25 (≈ 142 µM) | – | – |
| CO[C@@H]1CC(=O)c2cc(C(N)=O)ncc21 | inactive | 25 (≈ 121 µM) | 25 (≈ 121 µM) | inactive | inactive | 25 (≈ 121 µM) | – | – |
| COc1ccc(C(=O)Cc2ccc(O)cc2)c(O)c1 | – | – | – | – | – | – | Dose-dependent effect | Dose-dependent effect |
| COC(=O)[C@]1(O)C=Cc2cnc(C(N)=O)cc21 | inactive | 25 (≈ 107 µM) | 25 (≈ 107 µM) | inactive | inactive | 25 (≈ 107 µM) | Dose-dependent effect | Dose-dependent effect |
